Ki, Activity and viability data for 24 compounds are collected here from ChEMBL document CHEMBL5352444, “Development of benzene and benzothiazole-sulfonamide analogues as selective inhibitors of the tumor-associated carbonic anhydrase IX” (Eur J Med Chem, 2022).

Molecules are shown by their SMILES. pKi: −log10 of the molar value.

Series [1] deals with Carbonic anhydrase 4 (Homo sapiens, UniProt P22748). The series can be described thus: Inhibition of human carbonic anhydrase 4 assessed as inhibition constant preincubated for 15 mins and measured for 10 to 100 sec by phenol red dye based stopped flow CO2 hydration assay.
Chain of Carbonic anhydrase 4 (P22748 whole entry): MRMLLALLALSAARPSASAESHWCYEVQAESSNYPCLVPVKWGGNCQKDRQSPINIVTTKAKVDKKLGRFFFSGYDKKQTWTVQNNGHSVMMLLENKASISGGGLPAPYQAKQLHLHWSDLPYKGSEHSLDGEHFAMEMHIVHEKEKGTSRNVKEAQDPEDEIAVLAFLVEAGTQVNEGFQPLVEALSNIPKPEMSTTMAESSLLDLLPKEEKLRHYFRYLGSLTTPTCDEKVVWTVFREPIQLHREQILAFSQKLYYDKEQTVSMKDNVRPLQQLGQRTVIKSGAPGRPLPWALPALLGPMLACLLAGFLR
Series [2] deals with Carbonic anhydrase 2 (Homo sapiens, UniProt P00918). The series can be described thus: Inhibition of human carbonic anhydrase 2 assessed as inhibition constant preincubated for 15 mins and measured for 10 to 100 sec by phenol red dye based stopped flow CO2 hydration assay.
Series [3] concerns the target Carbonic anhydrase 1 (Homo sapiens, UniProt P00915). Nature of the series: Inhibition of human carbonic anhydrase 1 assessed as inhibition constant preincubated for 15 mins and measured for 10 to 100 sec by phenol red dye based stopped flow CO2 hydration assay.
For series [4], the target named is Carbonic anhydrase 9 (Homo sapiens, UniProt Q16790). Nature of the series: Inhibition of human carbonic anhydrase 9 assessed as inhibition constant incubated for 15 mins by phenol red dye based stopped flow CO2 hydration assay.
A short description of series [5]: Cytotoxicity against HGF cells assessed as increase in cell viability at 10 uM incubated for 72 hrs by MTT assay relative to control. The following applies: human. It counts as toxicity, cell-based.
The nature of series [6]: Cytotoxicity against HGF cells assessed as increase in cell viability at 10 uM incubated for 72 hrs by MTT assay relative to doxorubicin. It counts as toxicity, cell-based. The following applies: human. For orientation: Formazan colour is commonly taken as a measure of viable cells.
Series [7] is described as follows: Cytotoxicity against HGF cells assessed as increase in cell viability at 50 uM incubated for 48 hrs by MTT assay relative to doxorubicin. It counts as toxicity, cell-based. The note with it: human.
The nature of series [8]: Cytotoxicity against HGF cells assessed as increase in cell viability at 50 uM incubated for 72 hrs by MTT assay relative to control. It counts as toxicity, cell-based. The following applies: human.
A short description of series [9]: Cytotoxicity against HGF cells assessed as cell viability at 50 uM incubated for 72 hrs by MTT assay relative to control. The following applies: human, read-out: Activity. It counts as toxicity, cell-based.
A short description of series [10]: Cytotoxicity against HGF cells assessed as increase in cell viability at 10 uM incubated for 48 hrs by MTT assay relative to doxorubicin. It counts as toxicity, cell-based. The note with it: human.
Series [11] is described as follows: Cytotoxicity against HGF cells assessed as increase in cell viability at 10 uM incubated for 48 hrs by MTT assay relative to control. It counts as toxicity, cell-based. The note with it: human.
The nature of series [12]: Cytotoxicity against HGF cells assessed as increase in cell viability at 50 uM incubated for 48 hrs by MTT assay relative to control. The following applies: human. It counts as toxicity, cell-based.

Chain of Carbonic anhydrase 1 (P00915 whole entry): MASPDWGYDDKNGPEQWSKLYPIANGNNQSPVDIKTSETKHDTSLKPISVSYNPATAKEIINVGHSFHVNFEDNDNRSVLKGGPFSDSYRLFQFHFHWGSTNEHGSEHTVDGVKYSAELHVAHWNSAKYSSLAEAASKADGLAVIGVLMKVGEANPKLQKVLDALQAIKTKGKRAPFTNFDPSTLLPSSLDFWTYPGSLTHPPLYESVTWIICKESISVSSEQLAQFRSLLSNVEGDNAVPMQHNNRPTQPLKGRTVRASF

As to `CN1CCN(C(=S)SCC(=O)Nc2nc3ccc(S(N)(=O)=O)cc3s2)CC1`, the pKi in series [1] was 5.29; in series [2], 8.39; in series [3], 7.68; in series [4], 7.51.
In the case of `NS(=O)(=O)c1ccc2nc(NC(=O)CSC(=S)N3CCN(Cc4ccccc4)CC3)sc2c1`, the pKi in series [1] was 5.26; in series [2], 6.53; in series [3], 6.22; in [4], 7.59. For the same compound, the Activity entry in [5] is “Toxic”; in series [6], “Non-Toxic”; in series [7] it was “Non-Toxic”; in series [8] it was “Toxic”; in series [10], “Non-Toxic”. For the same compound, the viability at 72 h, 50 µM in series [9] was over 60%.
Regarding `CC(=O)Nc1nnc(S(N)(=O)=O)s1` [ACETAZOLAMIDE], the Activity entry is given as “Non-Toxic” in series [6], “Non-Toxic” in series [7], “Toxic” in [8] and “Non-Toxic” in [10]. In addition, in [9], the viability at 72 h, 50 µM was over 60%.
For the compound `CCN1CCN(C(=S)SCC(=O)Nc2nc3ccc(S(N)(=O)=O)cc3s2)CC1`, the pKi was 5.23 in [1], 8.60 in [2], 7.25 in series [3] and 7.54 in series [4].
Take `CN1CCN(C(=S)SCC(=O)Nc2ccc(S(N)(=O)=O)cc2)CC1`: the negative logarithm of the Ki (pKi) in series [1] was 6.38; in series [4] it was 6.59.
With `CCOC(=O)N1CCN(C(=S)SCC(=O)Nc2nc3ccc(S(N)(=O)=O)cc3s2)CC1`, the pKi in [1] was under 5.00; in [2] it was 7.30; in [3], 5.12; in [4], 7.66. The Activity entry in series [5] is on record as “Toxic”; in series [6] it was “Non-Toxic”; in series [7] it was “Non-Toxic”; in series [8], “Toxic”; in series [10], “Non-Toxic”. Also, in series [9], the viability at 72 h, 50 µM was over 60%.
In the case of `COc1cccc2c1C(=O)c1c(O)c3c(c(O)c1C2=O)C[C@@](O)(C(=O)CO)C[C@@H]3O[C@H]1C[C@H](N)[C@H](O)[C@H](C)O1` [DOXORUBICIN], the Activity result in [5], in [11], in series [8] and in series [12] was “Toxic” in each case.
Regarding `NS(=O)(=O)c1ccc2nc(NC(=O)CSC(=S)N3CCOCC3)sc2c1`, the negative logarithm of the Ki (pKi) is 5.09 in [1], 7.55 in series [2], 8.06 in [3] and 7.57 in [4].
In the case of `COc1ccc(N2CCN(C(=S)SCC(=O)Nc3ccc(S(N)(=O)=O)cc3)CC2)cc1`, the pKi was 6.05 in series [1], 6.53 in [2], 5.68 in series [3] and 6.25 in series [4].
Turning to `COc1ccc(N2CCN(C(=S)SCC(=O)Nc3nc4ccc(S(N)(=O)=O)cc4s3)CC2)cc1`, the negative logarithm of the Ki (pKi) in [1] was under 5.00; in series [2] it was 6.44; in series [3], 6.02; in series [4], 7.51. For the same compound, the Activity entry in [5] is “Toxic”; in [6], “Non-Toxic”; in [7] it was “Non-Toxic”; in series [8], “Toxic”; in series [10] it was “Non-Toxic”. The viability at 72 h, 50 µM in [9] is over 60%.
Consider `NS(=O)(=O)c1ccc(NC(=O)CSC(=S)N2CCN(C(c3ccccc3)c3ccccc3)CC2)cc1`, for which the negative logarithm of the Ki (pKi) is 5.07 in [1], 6.36 in [2], 5.74 in series [3] and 6.81 in series [4].
As to `NS(=O)(=O)c1ccc(NC(=O)CSC(=S)N2CCN(c3ccc(F)c(Cl)c3)CC2)cc1`, the negative-log Ki (pKi) in [1] is 5.61; in [2] it was 6.36; in series [3], 5.67; in series [4], 6.56.
Taken in the same sequence, the figures for `NS(=O)(=O)c1ccc(NC(=O)CSC(=S)N2CCN(Cc3ccccc3)CC2)cc1` were 5.47, 7.76, 7.08 and 7.50.
Taken in the same sequence, the figures for `NS(=O)(=O)c1ccc2nc(NC(=O)CSC(=S)N3CCCCC3)sc2c1` were 5.13, 8.42, 7.07 and 7.58.
Taken in the same sequence, the figures for `Cc1ccc(N2CCN(C(=S)SCC(=O)Nc3ccc(S(N)(=O)=O)cc3)CC2)cc1` were 5.64, 6.43, 5.70 and 5.90.
For `CCOC(=O)N1CCN(C(=S)SCC(=O)Nc2ccc(S(N)(=O)=O)cc2)CC1`, the negative logarithm of the Ki (pKi) in series [1] is 6.11; in series [2] it was 8.24; in [3], 7.26; in [4], 6.87.
Take `NS(=O)(=O)c1ccc(NC(=O)CSC(=S)N2CCOCC2)cc1`: the pKi in [1] is 6.19; in series [2] it was 8.14; in [3] it was 7.14; in series [4], 6.79.
Taken in the same sequence, the figures for `NS(=O)(=O)c1ccc(NC(=O)CSC(=S)N2CCCCC2)cc1` were 6.39, 8.22, 7.56 and 6.58.
The matching figures for `NS(=O)(=O)c1ccc2nc(NC(=O)CSC(=S)N3CCN(c4ccccc4)CC3)sc2c1`: under 5.00, 7.04, 5.38 and 6.94.
As to `COc1ccccc1N1CCN(C(=S)SCC(=O)Nc2ccc(S(N)(=O)=O)cc2)CC1`, the pKi in series [1] is under 5.00; in series [2], 6.21; in [3], 7.44; in series [4], 7.49. For the same compound, the Activity result was “Toxic” in series [5]; “Non-Toxic” in series [6]; “Non-Toxic” in series [7]; “Toxic” in series [8]; “Toxic” in series [12]; “Non-Toxic” in series [10]. Further, the viability at 72 h, 50 µM in series [9] is over 60%.
Consider `CCN1CCN(C(=S)SCC(=O)Nc2ccc(S(N)(=O)=O)cc2)CC1`, for which the negative-log Ki (pKi) was 6.72 in series [1], 8.31 in [2], 8.09 in series [3] and 6.53 in [4].
The matching figures for `NS(=O)(=O)c1ccc2nc(NC(=O)CSC(=S)N3CCN(C(c4ccccc4)c4ccccc4)CC3)sc2c1`: 5.12, 6.02, 5.04 and 6.80.
`COc1ccccc1N1CCN(C(=S)SCC(=O)Nc2nc3ccc(S(N)(=O)=O)cc3s2)CC1`: the pKi is 5.14 in series [1], 7.29 in [2], 5.30 in series [3] and 7.52 in series [4]. Moreover, the Activity entry in series [5] is “Toxic”; in [6], “Non-Toxic”; in [7] it was “Non-Toxic”; in series [8], “Toxic”; in [10], “Non-Toxic”. In addition, in series [9], the viability at 72 h, 50 µM was over 60%.
In the case of `NS(=O)(=O)c1ccc(NC(=O)CSC(=S)N2CCN(c3ccccc3)CC2)cc1`, the negative-log Ki (pKi) is 5.83 in [1], 6.62 in series [2], 6.15 in [3] and 6.13 in [4].

What is called pKi is the Ki on a negative log10 scale, so that one unit is a factor of ten.
